Assay results: PMC8175350, “Drug repurposing screens identify chemical entities for the development of COVID-19 interventions” (Nature Communications, 2021)
Structures can show the parent of a compound that is named as a salt. Where two headings read alike, the source gives them in different places.

Experiments:
in vitro = details: human
HeLa-ACE2 cells [1] = assay: Uninfected HeLa-ACE2 24 h live/dead cytotoxicity counter screen; assay type: cell-based, human
[2] = as above; assay type: cell-based, human; details: human, uninfected HeLa-ACE2 cells
HepG2 [3] = details: human
SARS-CoV-2 [4] = assay: microbe, parasite or virus in culture; assay type: cell-based; details: for Emax: Severe acute respiratory syndrome coronavirus 2, HeLa-ACE2, 24 h, read-out: HeLa-ACE2 CoV-2 Sinf Average
SARS-CoV-2 [5] = assay: microbe, parasite or virus in culture; assay type: cell-based; details: for Emax: Severe acute respiratory syndrome coronavirus 2, HeLa-ACE2, 10 h, read-out: HeLa-ACE2 TOA CoV-2 Sinf Average; for EC50: read-out: HeLa-ACE2 TOA CoV-2 EC50 GeoMean
HeLa-ACE2 cells [6] = assay: Total cell count in the HeLa-ACE2 TOA assay; assay type: cell-based; details: Homo sapiens; for Emax: HeLa-ACE2, 10 h, curve plateau at infinite concentration, read-out: HeLa-ACE2 TOA cell count Sinf Average; for EC50: HeLa-ACE2, read-out: HeLa-ACE2 TOA cell count EC50 GeoMean
Text: Supplement 41467_2021_23328_MOESM3_ESM.xlsx, sheet "Table S1" | column: HeLa-ACE2 TOA cell count

SARS-CoV-2 [7] = assay: microbe, parasite or virus in culture; assay type: cell-based; details: for Emax: Severe acute respiratory syndrome coronavirus 2, Calu-3, 48 h, read-out: Calu-3 CoV-2 Sinf Average
Calu-3 cells [8] = details: for Calu-3 uninfected cytotoxicity Sinf Average: human
Calu-3 cells [9] = assay: cells; details: Homo sapiens; for Emax: Calu-3, 48 h, read-out: Calu-3 cell count Sinf Average; for EC50: Calu-3, read-out: Calu-3 cell count EC50 GeoMean
HEK293T [10] = details: human
HeLa-ACE2 cells [11] = assay: cells; details: Homo sapiens; for EC50: HeLa-ACE2, read-out: HeLa-ACE2 cell count EC50 GeoMean; for Emax: HeLa-ACE2, 24 h, read-out: HeLa-ACE2 cell count Sinf Average
[12] = HEK293T 72 h CellTiter-Glo cytotoxicity; details: human, HEK293T cells
HEK293T [13] = assay: HEK293T 72 h CellTiter-Glo cytotoxicity; details: 72 h
HepG2 [14] = assay: HepG2 72 h CellTiter-Glo cytotoxicity; details: 72 h
Calu-3 cells [15] = assay: Uninfected Calu-3 48 h Cell-Titer Glo cytotoxicity counter screen; details: curve plateau at infinite concentration
[16] = as above; details: human, uninfected Calu-3 cells
[17] = HepG2 72 h CellTiter-Glo cytotoxicity; details: human, HepG2 cells
[18] = Calu-3 uninfected cytotoxicity CC50 GeoMean
[19] = curve plateau at infinite concentration
[20] = read-out: HeLa-ACE2 uninfected cytotoxicity CC50 GeoMean
[21] = Severe acute respiratory syndrome coronavirus 2, HeLa-ACE2
[22] = Severe acute respiratory syndrome coronavirus 2, Calu-3, detail column, read-out: Calu-3 CoV-2 EC50 GeoMean

SMILES: Nc1ncnc2c1nc(Cl)n2[C@@H]1O[C@H](CO)[C@@H](O)[C@H]1O [8-Chloroadenosine]
- CC50 at 48 h (in vitro; Calu-3 Uninf. cells CC50 (µM)): > 27.8 µM
- CC50 at 48 h (in vitro; [18]): > 27.7 µM
- HeLa-ACE2 uninfected cytotoxicity Sinf Average (HeLa-ACE2 cells [1]; [19]): -87%
- CC50 at 24 h ([2]; reconfirmed hits, read-out: HeLa-ACE2 Uninf. cells CC50): > 11.9 µM
- CC50 at 24 h [2, 20]: > 11.9 µM
- HepG2 72-hour cytotoxicity Sinf Average (HepG2 [3]; 72 h): -69%
- Emax (SARS-CoV-2 [4]; [19]): 98%
- EC50 (SARS-CoV-2 [4]; Severe acute respiratory syndrome coronavirus 2, HeLa-ACE2, reconfirmed hits, read-out: HeLa-ACE2 SARS-CoV-2 EC50): 0.927 µM
- Emax (SARS-CoV-2 [5]; [19]): 98%
- EC50 (SARS-CoV-2 [5]; [21]): 1.07 µM
- Emax (HeLa-ACE2 cells [6]): 100%
- EC50 (HeLa-ACE2 cells [6]): > 9.59 µM
- Emax (SARS-CoV-2 [7]; [19]): 96%
- EC50 (SARS-CoV-2 [7]; [22]): 4.94 µM
- EC50 (SARS-CoV-2 [7]; Severe acute respiratory syndrome coronavirus 2, Calu-3, reconfirmed hits, read-out: Calu-3 SARS-CoV-2 EC50): 4.94 µM
- uninfected Calu-3 CC50 (Calu-3 cells [8]): > 27.747 ×÷ 1.135 (n=3) μM
- Calu-3 uninfected cytotoxicity Sinf Average (Calu-3 cells [8]; 48 h): -92%
- Emax (Calu-3 cells [9]): 99%
- EC50 (Calu-3 cells [9]): > 9.98 µM
- HEK293T 72-hour cytotoxicty Sinf Average (HEK293T [10]; 72 h): -98%
- EC50 (HeLa-ACE2 cells [11]): > 9.59 µM

SMILES: CCCCc1oc2ccccc2c1C(=O)c1cc(I)c(OCCN(CC)CC)c(I)c1 [Amiodarone]
- HeLa-ACE2 uninfected cytotoxicity Sinf Average (HeLa-ACE2 cells [1]; human, uninfected HeLa-ACE2 cells, 24 h): -101%
- Emax (SARS-CoV-2 [4]): 96%
- CC50 at 72 h [12]: 10.9 µM
- HEK293T 72-hour cytotoxicty Sinf Average (HEK293T [13]): -100%
- HepG2 72-hour cytotoxicity Sinf Average (HepG2 [14]): -100%
- Emax (SARS-CoV-2 [5]): 100%
- Emax (SARS-CoV-2 [7]): 100%
- Emax (Calu-3 cells [9]): 100%
- Emax (HeLa-ACE2 cells [11]): 100%

SMILES: CN1CC2c3ccccc3Oc3ccc(Cl)cc3C2C1 (centres unmarked) [Asenapine maleate]
- HeLa-ACE2 uninfected cytotoxicity Sinf Average (HeLa-ACE2 cells [1]; [19]): -100%
- CC50 at 24 h ([2]; detail block, read-out: HeLa-ACE2 uninfected cytotoxicity CC50 GeoMean): > 35.6 µM
- Emax (SARS-CoV-2 [4]; [19]): 97%
- Calu-3 uninfected cytotoxicity Sinf Average (Calu-3 cells [15]): -100%
- CC50 at 48 h [16]: > 29.9 µM
- CC50 at 72 h [12]: 23.3 µM
- HEK293T 72-hour cytotoxicty Sinf Average (HEK293T [13]): -100%
- CC50 at 72 h [17]: 19.9 µM
- HepG2 72-hour cytotoxicity Sinf Average (HepG2 [14]): -100%
- Emax (SARS-CoV-2 [5]; [19]): 100%
- Emax (SARS-CoV-2 [7]; [19]): 100%

SMILES: COc1ccc2c(c1)[C@]1(C[C@H]1c1ccc3c(/C=C/c4ccc(CN5C[C@@H](C)O[C@@H](C)C5)cc4)n[nH]c3c1)C(=O)N2 [CFI-400945]
- CC50 at 48 h (in vitro; [18]): > 19.8 µM
- HeLa-ACE2 uninfected cytotoxicity Sinf Average (HeLa-ACE2 cells [1]; [19]): -100%
- CC50 at 24 h [2, 20]: 7.18 µM
- HepG2 72-hour cytotoxicity Sinf Average (HepG2 [3]; 72 h): -100%
- Emax (SARS-CoV-2 [4]; [19]): 100%
- EC50 (SARS-CoV-2 [4]; Severe acute respiratory syndrome coronavirus 2, HeLa-ACE2, detail column, read-out: HeLa-ACE2 CoV-2 EC50 GeoMean): > 7 µM
- Emax (SARS-CoV-2 [5]; [19]): 100%
- EC50 (SARS-CoV-2 [5]; [21]): 4.57 µM
- Emax (HeLa-ACE2 cells [6]): 100%
- EC50 (HeLa-ACE2 cells [6]): > 9.59 µM
- Emax (SARS-CoV-2 [7]; [19]): 100%
- EC50 (SARS-CoV-2 [7]; [22]): 3.36 µM
- uninfected Calu-3 CC50 (Calu-3 cells [8]): > 19.756 ×÷ 1.816 (n=3) μM
- Calu-3 uninfected cytotoxicity Sinf Average (Calu-3 cells [8]; 48 h): -98%
- Emax (Calu-3 cells [9]): 100%
- EC50 (Calu-3 cells [9]): 4.75 µM
- HEK293T 72-hour cytotoxicty Sinf Average (HEK293T [10]; 72 h): -95%
- Emax (HeLa-ACE2 cells [11]): 53%
- EC50 (HeLa-ACE2 cells [11]): > 0.117 µM

SMILES: C[C@H]1O[C@@H](O[C@H]2[C@@H](O)C[C@H](O[C@H]3[C@@H](O)C[C@H](O[C@H]4CC[C@@]5(C)[C@H](CC[C@@H]6[C@@H]5C[C@@H](O)[C@]5(C)[C@@H](C7=CC(=O)OC7)CC[C@]65O)C4)O[C@@H]3C)O[C@@H]2C)C[C@H](O)[C@@H]1O [Digoxin]
- CC50 (in vitro; [18]): > 5.04 µM
- HeLa-ACE2 uninfected cytotoxicity Sinf Average (HeLa-ACE2 cells [1]; [19]): -98%
- CC50 at 24 h [2, 20]: 0.12 µM
- HepG2 72-hour cytotoxicity Sinf Average (HepG2 [3]): -102%
- Emax (SARS-CoV-2 [4]; [19]): 100%
- EC50 (SARS-CoV-2 [4]; Severe acute respiratory syndrome coronavirus 2, HeLa-ACE2, read-out: HeLa-ACE2 CoV-2 EC50 GeoMean): 0.166 µM
- Emax (SARS-CoV-2 [5]; [19]): 89%
- EC50 (SARS-CoV-2 [5]; Severe acute respiratory syndrome coronavirus 2, HeLa-ACE2, detail column): 0.792 µM
- EC50 (HeLa-ACE2 cells [6]): > 9.59 µM
- Emax (SARS-CoV-2 [7]; [19]): 83%
- EC50 (SARS-CoV-2 [7]; Severe acute respiratory syndrome coronavirus 2, Calu-3, read-out: Calu-3 CoV-2 EC50 GeoMean): 0.169 µM
- Calu-3 uninfected cytotoxicity Sinf Average (Calu-3 cells [8]): -38%
- Emax (Calu-3 cells [9]): -100%
- EC50 (Calu-3 cells [9]): > 9.95 µM
- HEK293T 72-hour cytotoxicty Sinf Average (HEK293T [10]): -101%
- Emax (HeLa-ACE2 cells [11]): 101%
- EC50 (HeLa-ACE2 cells [11]): 0.325 µM
